Patent US9101638B2, “Boronic acid derivatives and therapeutic uses thereof” (Rempex Pharmaceuticals, Inc., priority 2013, dated 2015)

Experiments:
CTX-M-14 = CTX-M-14 (Escherichia coli, UniProt Q9L5C7); assay: Inhibition of nitrocefin cleavage by purified CTX-M-14; format: biochemical; conditions: nitrocefin reporter substrate, purified enzyme; read-out: Ki (CTX-M-14, NCF)
Experimental: (§1) Purified enzymes were mixed with various concentrations of inhibitors in reaction buffer and incubated for 10 min at room temperature. Nitrocefin was added and substrate cleavage profiles were recorded at 490 nm every 10 sec for 10 min.

ec308 (SHV-5) [1] = assay: Potentiation of tigemonam, strain ec308; format: cell-based; conditions: minimum BLI concentration inhibiting growth with 4 μg/mL tigemonam
ec308 (SHV-5) [2] = assay: Potentiation of aztreonam, strain ec308; format: cell-based; conditions: minimum BLI concentration inhibiting growth with 4 μg/mL aztreonam
P99 = P99 (Enterobacter cloacae, UniProt P05364); assay: Inhibition of nitrocefin cleavage by purified P99; format: biochemical; conditions: nitrocefin reporter substrate, purified enzyme; read-out: Ki (P99, NCF)
Experimental: as §1

ec302 (TEM-10) [3] = assay: Potentiation of tigemonam, strain ec302; format: cell-based
KP1004 (K-2) = assay: Potentiation of aztreonam, strain KP1004; format: cell-based; conditions: minimum BLI concentration inhibiting growth with 4 μg/mL aztreonam
OXA-48 = OXA-48 (Klebsiella pneumoniae, UniProt Q6XEC0); assay: Inhibition of nitrocefin cleavage by purified OXA-48; format: biochemical; conditions: nitrocefin reporter substrate, purified enzyme; read-out: Ki (OXA-48, NCF)
Experimental: as §1

KP1009 (CTX-M-15) = assay: Potentiation of tigemonam, strain KP1009; conditions: minimum BLI concentration inhibiting growth with 4 μg/mL tigemonam
ECL1002 = assay: Potentiation of aztreonam, strain ECL1002; format: cell-based; conditions: minimum BLI concentration inhibiting growth with 4 μg/mL aztreonam
ec302 (TEM-10) [4] = assay: Potentiation of aztreonam, strain ec302; format: cell-based
KP1005 (CTX-M-14) = assay: Potentiation of aztreonam, strain KP1005; format: cell-based
CMY-2 = CMY-2 (Klebsiella pneumoniae, UniProt Q48434); assay: Inhibition of nitrocefin cleavage by purified CMY-2; format: biochemical; conditions: nitrocefin reporter substrate, purified enzyme; read-out: Ki (CMY-2, NCF)
Experimental: as §1

EC1010 (CMY-6) = format: cell-based
PAM1154/KPC-2 = assay: Biapenem potentiation in PAM1154/KPC-2 (MexAB-OprM lacking); format: cell-based, Pseudomonas aeruginosa
Experimental: (§2) Efflux of BLIs from Pseudomonas aeruginosa by the MexAB-OprM efflux pump was also evaluated. […] Due to expression of KPC-2 both strains became resistant to biapenem. […] Potency of BLIs to potentiate biapenem in these strains was determined. […] The ratio of MPC64 values for each BLI in PAM1032/KPC-2 (efflux proficient) and PAM1154/KPC-2 (efflux deficient) was determined to generate the Efflux Index (EI).

PAM1032/KPC-2 = assay: Biapenem potentiation in PAM1032/KPC-2 (MexAB-OprM overexpressed); format: cell-based, Pseudomonas aeruginosa
Experimental: as §2

SHV-12 = SHV-12 (Klebsiella pneumoniae, UniProt P0AD64, E235K/G234S/L31Q); assay: Inhibition of nitrocefin cleavage by purified SHV-12; format: biochemical; conditions: nitrocefin reporter substrate, purified enzyme; read-out: Ki (SHV-12, NCF)
Summary of the method: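 Purified enzyme was preincubated with a range of inhibitor concentrations in reaction buffer for 10 min at room temperature. Nitrocefin was then added and its cleavage followed at 490 nm every 10 sec for 10 min.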

Sequence of SHV-12 (P0AD64 22-286 L31Q/G234S/E235K): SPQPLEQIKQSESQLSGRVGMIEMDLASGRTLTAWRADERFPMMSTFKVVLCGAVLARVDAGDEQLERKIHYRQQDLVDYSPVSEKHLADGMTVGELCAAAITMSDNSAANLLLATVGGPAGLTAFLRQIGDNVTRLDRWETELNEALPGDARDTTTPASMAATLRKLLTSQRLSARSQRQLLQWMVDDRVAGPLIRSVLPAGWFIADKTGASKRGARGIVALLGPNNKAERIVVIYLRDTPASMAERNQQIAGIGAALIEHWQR
Sequence of CTX-M-14 (Q9L5C7 entry or part of it): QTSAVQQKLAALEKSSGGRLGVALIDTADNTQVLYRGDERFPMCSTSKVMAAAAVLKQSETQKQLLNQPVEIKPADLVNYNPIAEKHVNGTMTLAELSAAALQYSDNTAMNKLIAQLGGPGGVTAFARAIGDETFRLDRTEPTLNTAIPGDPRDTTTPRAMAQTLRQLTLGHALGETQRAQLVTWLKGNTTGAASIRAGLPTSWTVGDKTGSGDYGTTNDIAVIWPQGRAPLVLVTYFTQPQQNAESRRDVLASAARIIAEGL
Sequence of P99 (P05364 21-381): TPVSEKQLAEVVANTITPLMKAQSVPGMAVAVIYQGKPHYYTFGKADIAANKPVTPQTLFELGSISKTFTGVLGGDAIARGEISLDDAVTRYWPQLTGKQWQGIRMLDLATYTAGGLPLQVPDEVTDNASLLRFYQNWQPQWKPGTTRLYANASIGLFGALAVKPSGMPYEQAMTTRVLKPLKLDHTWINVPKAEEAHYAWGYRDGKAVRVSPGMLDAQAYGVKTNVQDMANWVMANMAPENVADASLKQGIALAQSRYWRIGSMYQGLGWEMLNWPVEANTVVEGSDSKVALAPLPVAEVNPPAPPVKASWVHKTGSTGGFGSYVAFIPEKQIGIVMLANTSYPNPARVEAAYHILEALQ
Sequence of OXA-48 (Q6XEC0 23-265 limits assumed): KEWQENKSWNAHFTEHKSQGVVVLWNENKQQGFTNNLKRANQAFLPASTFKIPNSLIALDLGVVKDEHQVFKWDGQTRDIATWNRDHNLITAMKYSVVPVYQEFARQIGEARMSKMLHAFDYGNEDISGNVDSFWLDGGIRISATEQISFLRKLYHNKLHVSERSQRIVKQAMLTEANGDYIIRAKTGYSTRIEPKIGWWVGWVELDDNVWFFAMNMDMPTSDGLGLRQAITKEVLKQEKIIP
Sequence of CMY-2 (Q48434 21-381, species assumed): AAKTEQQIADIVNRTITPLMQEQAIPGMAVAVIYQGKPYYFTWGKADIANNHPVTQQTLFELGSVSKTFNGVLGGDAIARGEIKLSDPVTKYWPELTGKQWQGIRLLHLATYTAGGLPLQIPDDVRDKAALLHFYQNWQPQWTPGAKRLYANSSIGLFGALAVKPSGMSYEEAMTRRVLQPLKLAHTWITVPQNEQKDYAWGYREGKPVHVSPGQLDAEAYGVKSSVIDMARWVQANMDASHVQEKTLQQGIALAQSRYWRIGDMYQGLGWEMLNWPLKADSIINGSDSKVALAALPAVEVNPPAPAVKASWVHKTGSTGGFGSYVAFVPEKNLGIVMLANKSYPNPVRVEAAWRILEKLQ

**Q.** For NC(=O)CC(=O)N[C@H]1Cc2cccc(C(=O)O)c2OB1O [Compound 16, (R)-3-(3-amino-3-oxopropanamido)-2-hydroxy-3,4-dihydro-2H-benzo[e][1,2]oxaborinine-8-carboxylic acid], which Ki (CTX-M-14) is on record?
**A.** 1 to 10 nM

**Q.** And the “TIG MPC4 SHV-5 ec308” value (ec308 (SHV-5) [1])?
**A.** Y (Y = MIC of 1 μg/mL to 10 μg/mL)

**Q.** What about the “AZT MPC4 SHV-5 ec308” value (ec308 (SHV-5) [2]) of the same compound?
**A.** X (X = MIC of less than 1 μg/mL)

**Q.** And the Ki (P99)?
**A.** 1 to 10 nM

**Q.** And the “TIG MPC4 TEM-10 ec302” value (ec302 (TEM-10) [3])?
**A.** Y (key: X = MIC of less than 1 μg/mL; Y = MIC of 1 μg/mL to 10 μg/mL; Z = MIC of greater than 10 μg/mL)

**Q.** What about the “AZT MPC4 K-2 KP1004” value (KP1004 (K-2)) of the same compound?
**A.** Y (Y = MIC of 1 μg/mL to 10 μg/mL)

**Q.** And the Ki (OXA-48)?
**A.** 1 to 10 nM

**Q.** What about the “TIG MPC4 CTX-M-15 KP1009” value (KP1009 (CTX-M-15)) of the same compound?
**A.** X (X = MIC of less than 1 μg/mL)

**Q.** What about the “AZT MPC4 ECL1002” value (ECL1002) of the same compound?
**A.** X (X = MIC of less than 1 μg/mL)

**Q.** And the “AZT MPC4 TEM-10 ec302” value (ec302 (TEM-10) [4])?
**A.** X (key: X = MIC of less than 1 μg/mL; Y = MIC of 1 μg/mL to 10 μg/mL; Z = MIC of greater than 10 μg/mL)

**Q.** What about the “AZT MPC4 CTX-M-14 KP1005” value (KP1005 (CTX-M-14)) of the same compound?
**A.** X (key: X = MIC of less than 1 μg/mL; Y = MIC of 1 μg/mL to 10 μg/mL; Z = MIC of greater than 10 μg/mL)

**Q.** What about the Ki (CMY-2) of the same compound?
**A.** 1 to 10 nM

**Q.** What about the “TIG MPC4 CMY-6 EC1010” value (EC1010 (CMY-6)) of the same compound?
**A.** X (key: X = MIC of less than 1 μg/mL; Y = MIC of 1 μg/mL to 10 μg/mL; Z = MIC of greater than 10 μg/mL)

**Q.** And the “PAM1154/KPC-2 Biapenem MPC64” value (PAM1154/KPC-2)?
**A.** X (key: X = Less than 10; Y = 10 to 40; Z Greater than 40)

**Q.** And the “PAM1032/KPC-2 Biapenem MPC64” value (PAM1032/KPC-2)?
**A.** X (key: X = Less than 10; Y = 10 to 40; Z Greater than 40)

**Q.** What about the Ki (SHV-12) of the same compound?
**A.** < 1 nM
